# Results taken from PubChem BioAssay (NCI).
#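 All cell lines were grown in 96-well plates and treated with compound for 48 hours. TGI denotes the concentration required for complete inhibition of growth.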
# Test system: TK-10 renal
# Assay: NCI tumour cell line growth inhibition, 48 h
row,SMILES,TGI [µM]
1,CCCCCCc1cc2cc(C(=O)Nc3ccccc3)c(=N)oc2cc1O,> 100
2,Cc1nn(-c2ccccc2)c2c1C(c1ccc(Cl)cc1)NC(=S)N2 (stereo not given),43.6
3,CCOC1OC(=O)c2cc3ccc4c(c3c(-c3ccc5c(c3)OCO5)c21)OCO4 (stereo not given),> 77.9
4,CN=C1CC2c3cc(OC)c(OC)cc3CCN2C2=C1C(=O)CC(C)(C)C2 (stereo not given),> 100
5,Cn1c(=O)n(C2(C)C[Se]C2)c2ccccc21,> 100

# Test system: SR leukemia
# Assay: NCI tumour cell line growth inhibition, 48 h
row,SMILES,TGI [µM]
1,O=C1/C(=C/c2ccccc2S)N=C(c2ccccc2)N1c1nc2c(Cl)cc(Cl)cc2s1,34
2,CCCCCCc1cc2cc(C(=O)Nc3ccccc3)c(=N)oc2cc1O,> 26.3
3,Cc1nn(-c2ccccc2)c2c1C(c1ccc(Cl)cc1)NC(=S)N2 (stereo not given),> 100
4,CCOC1OC(=O)c2cc3ccc4c(c3c(-c3ccc5c(c3)OCO5)c21)OCO4 (stereo not given),5.43
5,CN=C1CC2c3cc(OC)c(OC)cc3CCN2C2=C1C(=O)CC(C)(C)C2 (stereo not given),> 100
6,Cn1c(=O)n(C2(C)C[Se]C2)c2ccccc21,> 100
7,COC(=O)C(Cc1nc2ccc(Cl)cc2[nH]c1=O)/C(=N\N)C(=O)Nc1cc(C)c(Cl)cc1S(=O)(=O)O (stereo not given),> 100

# Test system: SF-539 CNS
# Assay: NCI tumour cell line growth inhibition, 48 h
row,SMILES,TGI [µM]
1,O=C1/C(=C/c2ccccc2S)N=C(c2ccccc2)N1c1nc2c(Cl)cc(Cl)cc2s1,40.8
2,CCCCCCc1cc2cc(C(=O)Nc3ccccc3)c(=N)oc2cc1O,> 48.6
3,Cc1nn(-c2ccccc2)c2c1C(c1ccc(Cl)cc1)NC(=S)N2 (stereo not given),37.4
4,CCOC1OC(=O)c2cc3ccc4c(c3c(-c3ccc5c(c3)OCO5)c21)OCO4 (stereo not given),20.4
5,CN=C1CC2c3cc(OC)c(OC)cc3CCN2C2=C1C(=O)CC(C)(C)C2 (stereo not given),> 100
6,Cn1c(=O)n(C2(C)C[Se]C2)c2ccccc21,> 100
7,COC(=O)C(Cc1nc2ccc(Cl)cc2[nH]c1=O)/C(=N\N)C(=O)Nc1cc(C)c(Cl)cc1S(=O)(=O)O (stereo not given),> 100

# Test system: IGROV1 ovarian
# Assay: NCI tumour cell line growth inhibition, 48 h
row,SMILES,TGI [µM]
1,O=C1/C(=C/c2ccccc2S)N=C(c2ccccc2)N1c1nc2c(Cl)cc(Cl)cc2s1,67.2
2,CCCCCCc1cc2cc(C(=O)Nc3ccccc3)c(=N)oc2cc1O,> 100
3,Cc1nn(-c2ccccc2)c2c1C(c1ccc(Cl)cc1)NC(=S)N2 (stereo not given),28.1
4,CCOC1OC(=O)c2cc3ccc4c(c3c(-c3ccc5c(c3)OCO5)c21)OCO4 (stereo not given),> 100
5,Cn1c(=O)n(C2(C)C[Se]C2)c2ccccc21,> 100
6,COC(=O)C(Cc1nc2ccc(Cl)cc2[nH]c1=O)/C(=N\N)C(=O)Nc1cc(C)c(Cl)cc1S(=O)(=O)O (stereo not given),> 100

# Test system: NCI/ADR-RES ovarian
# Assay: NCI tumour cell line growth inhibition, 48 h
row,SMILES,TGI [µM]
1,O=C1/C(=C/c2ccccc2S)N=C(c2ccccc2)N1c1nc2c(Cl)cc(Cl)cc2s1,84.9
2,CCCCCCc1cc2cc(C(=O)Nc3ccccc3)c(=N)oc2cc1O,> 100
3,Cc1nn(-c2ccccc2)c2c1C(c1ccc(Cl)cc1)NC(=S)N2 (stereo not given),68.5
4,CCOC1OC(=O)c2cc3ccc4c(c3c(-c3ccc5c(c3)OCO5)c21)OCO4 (stereo not given),> 74.6

# Test system: BT-549 breast
# Assay: NCI tumour cell line growth inhibition, 48 h
row,SMILES,TGI [µM]
1,O=C1/C(=C/c2ccccc2S)N=C(c2ccccc2)N1c1nc2c(Cl)cc(Cl)cc2s1,> 100
2,CCCCCCc1cc2cc(C(=O)Nc3ccccc3)c(=N)oc2cc1O,> 100
3,Cc1nn(-c2ccccc2)c2c1C(c1ccc(Cl)cc1)NC(=S)N2 (stereo not given),59.7
4,CCOC1OC(=O)c2cc3ccc4c(c3c(-c3ccc5c(c3)OCO5)c21)OCO4 (stereo not given),97.2

# Test system: EKVX NSCLC
# Assay: NCI tumour cell line growth inhibition, 48 h
row,SMILES,TGI [µM]
1,O=C1/C(=C/c2ccccc2S)N=C(c2ccccc2)N1c1nc2c(Cl)cc(Cl)cc2s1,36
2,CCCCCCc1cc2cc(C(=O)Nc3ccccc3)c(=N)oc2cc1O,> 100
3,Cc1nn(-c2ccccc2)c2c1C(c1ccc(Cl)cc1)NC(=S)N2 (stereo not given),90.8
4,CCOC1OC(=O)c2cc3ccc4c(c3c(-c3ccc5c(c3)OCO5)c21)OCO4 (stereo not given),> 100
5,CN=C1CC2c3cc(OC)c(OC)cc3CCN2C2=C1C(=O)CC(C)(C)C2 (stereo not given),> 100
6,Cn1c(=O)n(C2(C)C[Se]C2)c2ccccc21,> 100
7,COC(=O)C(Cc1nc2ccc(Cl)cc2[nH]c1=O)/C(=N\N)C(=O)Nc1cc(C)c(Cl)cc1S(=O)(=O)O (stereo not given),> 100

# Test system: SNB-78 CNS
# Assay: NCI tumour cell line growth inhibition, 48 h
row,SMILES,TGI [µM]
1,CN=C1CC2c3cc(OC)c(OC)cc3CCN2C2=C1C(=O)CC(C)(C)C2 (stereo not given),> 100
2,Cn1c(=O)n(C2(C)C[Se]C2)c2ccccc21,> 100
3,COC(=O)C(Cc1nc2ccc(Cl)cc2[nH]c1=O)/C(=N\N)C(=O)Nc1cc(C)c(Cl)cc1S(=O)(=O)O (stereo not given),> 100

# Test system: OVCAR-8 ovarian
# Assay: NCI tumour cell line growth inhibition, 48 h
row,SMILES,TGI [µM]
1,O=C1/C(=C/c2ccccc2S)N=C(c2ccccc2)N1c1nc2c(Cl)cc(Cl)cc2s1,73.3
2,CCCCCCc1cc2cc(C(=O)Nc3ccccc3)c(=N)oc2cc1O,> 49.6
3,Cc1nn(-c2ccccc2)c2c1C(c1ccc(Cl)cc1)NC(=S)N2 (stereo not given),43.3
4,CCOC1OC(=O)c2cc3ccc4c(c3c(-c3ccc5c(c3)OCO5)c21)OCO4 (stereo not given),> 100
5,CN=C1CC2c3cc(OC)c(OC)cc3CCN2C2=C1C(=O)CC(C)(C)C2 (stereo not given),> 100
6,Cn1c(=O)n(C2(C)C[Se]C2)c2ccccc21,> 100
7,COC(=O)C(Cc1nc2ccc(Cl)cc2[nH]c1=O)/C(=N\N)C(=O)Nc1cc(C)c(Cl)cc1S(=O)(=O)O (stereo not given),> 100

# Test system: NCI-H23 lung
# Assay: NCI tumour cell line growth inhibition, 48 h
row,SMILES,TGI [µM]
1,CCCCCCc1cc2cc(C(=O)Nc3ccccc3)c(=N)oc2cc1O,10.6
2,Cc1nn(-c2ccccc2)c2c1C(c1ccc(Cl)cc1)NC(=S)N2 (stereo not given),44.5
3,CCOC1OC(=O)c2cc3ccc4c(c3c(-c3ccc5c(c3)OCO5)c21)OCO4 (stereo not given),> 55.3
4,CN=C1CC2c3cc(OC)c(OC)cc3CCN2C2=C1C(=O)CC(C)(C)C2 (stereo not given),> 100
5,Cn1c(=O)n(C2(C)C[Se]C2)c2ccccc21,> 100
6,COC(=O)C(Cc1nc2ccc(Cl)cc2[nH]c1=O)/C(=N\N)C(=O)Nc1cc(C)c(Cl)cc1S(=O)(=O)O (stereo not given),> 100

# Test system: A549 NSCLC
# Assay: NCI tumour cell line growth inhibition, 48 h
row,SMILES,TGI [µM]
1,O=C1/C(=C/c2ccccc2S)N=C(c2ccccc2)N1c1nc2c(Cl)cc(Cl)cc2s1,54.3
2,CCCCCCc1cc2cc(C(=O)Nc3ccccc3)c(=N)oc2cc1O,> 37.5
3,Cc1nn(-c2ccccc2)c2c1C(c1ccc(Cl)cc1)NC(=S)N2 (stereo not given),69.5
4,CCOC1OC(=O)c2cc3ccc4c(c3c(-c3ccc5c(c3)OCO5)c21)OCO4 (stereo not given),> 100
5,CN=C1CC2c3cc(OC)c(OC)cc3CCN2C2=C1C(=O)CC(C)(C)C2 (stereo not given),> 100
6,Cn1c(=O)n(C2(C)C[Se]C2)c2ccccc21,> 100
7,COC(=O)C(Cc1nc2ccc(Cl)cc2[nH]c1=O)/C(=N\N)C(=O)Nc1cc(C)c(Cl)cc1S(=O)(=O)O (stereo not given),> 100

# Test system: KM20L2 colon
# Assay: NCI tumour cell line growth inhibition, 48 h
row,SMILES,TGI [µM]
1,CN=C1CC2c3cc(OC)c(OC)cc3CCN2C2=C1C(=O)CC(C)(C)C2 (stereo not given),> 100
2,Cn1c(=O)n(C2(C)C[Se]C2)c2ccccc21,> 100

# Test system: DMS 273 small cell lung
# Assay: NCI tumour cell line growth inhibition, 48 h
row,SMILES,TGI [µM]
1,CN=C1CC2c3cc(OC)c(OC)cc3CCN2C2=C1C(=O)CC(C)(C)C2 (stereo not given),> 100
2,Cn1c(=O)n(C2(C)C[Se]C2)c2ccccc21,> 100

# Test system: A498 renal
# Assay: NCI tumour cell line growth inhibition, 48 h
row,SMILES,TGI [µM]
1,O=C1/C(=C/c2ccccc2S)N=C(c2ccccc2)N1c1nc2c(Cl)cc(Cl)cc2s1,40.7
2,CCCCCCc1cc2cc(C(=O)Nc3ccccc3)c(=N)oc2cc1O,> 100
3,Cc1nn(-c2ccccc2)c2c1C(c1ccc(Cl)cc1)NC(=S)N2 (stereo not given),67.1
4,CCOC1OC(=O)c2cc3ccc4c(c3c(-c3ccc5c(c3)OCO5)c21)OCO4 (stereo not given),> 100
5,CN=C1CC2c3cc(OC)c(OC)cc3CCN2C2=C1C(=O)CC(C)(C)C2 (stereo not given),> 100
6,Cn1c(=O)n(C2(C)C[Se]C2)c2ccccc21,> 100
7,COC(=O)C(Cc1nc2ccc(Cl)cc2[nH]c1=O)/C(=N\N)C(=O)Nc1cc(C)c(Cl)cc1S(=O)(=O)O (stereo not given),> 100

# Test system: UACC-257 melanoma
# Assay: NCI tumour cell line growth inhibition, 48 h
row,SMILES,TGI [µM]
1,O=C1/C(=C/c2ccccc2S)N=C(c2ccccc2)N1c1nc2c(Cl)cc(Cl)cc2s1,> 100
2,CCCCCCc1cc2cc(C(=O)Nc3ccccc3)c(=N)oc2cc1O,> 100
3,Cc1nn(-c2ccccc2)c2c1C(c1ccc(Cl)cc1)NC(=S)N2 (stereo not given),> 100
4,CCOC1OC(=O)c2cc3ccc4c(c3c(-c3ccc5c(c3)OCO5)c21)OCO4 (stereo not given),> 84.5
5,CN=C1CC2c3cc(OC)c(OC)cc3CCN2C2=C1C(=O)CC(C)(C)C2 (stereo not given),> 100
6,Cn1c(=O)n(C2(C)C[Se]C2)c2ccccc21,> 100
7,COC(=O)C(Cc1nc2ccc(Cl)cc2[nH]c1=O)/C(=N\N)C(=O)Nc1cc(C)c(Cl)cc1S(=O)(=O)O (stereo not given),> 100

# Test system: UACC-62 melanoma
# Assay: NCI tumour cell line growth inhibition, 48 h
row,SMILES,TGI [µM]
1,O=C1/C(=C/c2ccccc2S)N=C(c2ccccc2)N1c1nc2c(Cl)cc(Cl)cc2s1,57.5
2,CCCCCCc1cc2cc(C(=O)Nc3ccccc3)c(=N)oc2cc1O,40.1
3,Cc1nn(-c2ccccc2)c2c1C(c1ccc(Cl)cc1)NC(=S)N2 (stereo not given),60.5
4,CCOC1OC(=O)c2cc3ccc4c(c3c(-c3ccc5c(c3)OCO5)c21)OCO4 (stereo not given),> 59.2
5,Cn1c(=O)n(C2(C)C[Se]C2)c2ccccc21,> 100
6,COC(=O)C(Cc1nc2ccc(Cl)cc2[nH]c1=O)/C(=N\N)C(=O)Nc1cc(C)c(Cl)cc1S(=O)(=O)O (stereo not given),> 100

# Test system: HCT-116 colon
# Assay: NCI tumour cell line growth inhibition, 48 h
row,SMILES,TGI [µM]
1,O=C1/C(=C/c2ccccc2S)N=C(c2ccccc2)N1c1nc2c(Cl)cc(Cl)cc2s1,36.5
2,CCCCCCc1cc2cc(C(=O)Nc3ccccc3)c(=N)oc2cc1O,6.59
3,Cc1nn(-c2ccccc2)c2c1C(c1ccc(Cl)cc1)NC(=S)N2 (stereo not given),> 100
4,CCOC1OC(=O)c2cc3ccc4c(c3c(-c3ccc5c(c3)OCO5)c21)OCO4 (stereo not given),18.6
5,CN=C1CC2c3cc(OC)c(OC)cc3CCN2C2=C1C(=O)CC(C)(C)C2 (stereo not given),> 100
6,Cn1c(=O)n(C2(C)C[Se]C2)c2ccccc21,> 100
7,COC(=O)C(Cc1nc2ccc(Cl)cc2[nH]c1=O)/C(=N\N)C(=O)Nc1cc(C)c(Cl)cc1S(=O)(=O)O (stereo not given),> 100

# Test system: DLD-1 colon
# Assay: NCI tumour cell line growth inhibition, 48 h
row,SMILES,TGI [µM]
1,CN=C1CC2c3cc(OC)c(OC)cc3CCN2C2=C1C(=O)CC(C)(C)C2 (stereo not given),> 100
